Measured values: PubChem BioAssay (NCI)
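Tested at 5 concentrations; 48 h exposure; 96-well plates; endpoints linearly interpolated, else capped at highest concentration. TGI: total growth inhibition.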

Columns and labels:
Assay in all cases: inhibition of tumour cell growth, NCI panel, 48 h
786-0 renal = test system: 786-0 renal
A498 renal = test system: A498 renal
A549 NSCLC = test system: A549 NSCLC
ACHN renal = test system: ACHN renal
BT-549 breast = test system: BT-549 breast
CAKI-1 renal = test system: CAKI-1 renal
CCRF-CEM leukemia = test system: CCRF-CEM leukemia
COLO 205 colon = test system: COLO 205 colon
DU-145 prostate = test system: DU-145 prostate
EKVX NSCLC = test system: EKVX NSCLC
HCC-2998 colon = test system: HCC-2998 colon
HCT-116 colon = test system: HCT-116 colon
HCT-15 colon = test system: HCT-15 colon
HOP-62 NSCLC = test system: HOP-62 NSCLC
HOP-92 NSCLC = test system: HOP-92 NSCLC
HS 578T breast = test system: HS 578T breast
HT29 colon = test system: HT29 colon
IGROV1 ovarian = test system: IGROV1 ovarian
K-562 leukemia = test system: K-562 leukemia
KM12 colon = test system: KM12 colon
LOX IMVI melanoma = test system: LOX IMVI melanoma
M14 melanoma = test system: M14 melanoma
MALME-3M melanoma = test system: MALME-3M melanoma
MCF7 breast = test system: MCF7 breast
MDA-MB-231 breast = test system: MDA-MB-231 breast
MDA-MB-435 = test system: MDA-MB-435
MDA-N = test system: MDA-N
MOLT-4 leukemia = test system: MOLT-4 leukemia
NCI-H226 lung = test system: NCI-H226 lung
NCI-H23 lung = test system: NCI-H23 lung
NCI-H460 lung = test system: NCI-H460 lung
NCI-H522 lung = test system: NCI-H522 lung
NCI/ADR-RES ovarian = test system: NCI/ADR-RES ovarian
OVCAR-3 ovarian = test system: OVCAR-3 ovarian
OVCAR-4 ovarian = test system: OVCAR-4 ovarian
OVCAR-5 ovarian = test system: OVCAR-5 ovarian
OVCAR-8 ovarian = test system: OVCAR-8 ovarian
PC-3 prostate = test system: PC-3 prostate
RPMI-8226 leukemia = test system: RPMI-8226 leukemia
RXF 393 renal = test system: RXF 393 renal
SF-268 CNS = test system: SF-268 CNS
SF-295 CNS = test system: SF-295 CNS
SF-539 CNS = test system: SF-539 CNS
SK-MEL-2 melanoma = test system: SK-MEL-2 melanoma
SK-MEL-28 melanoma = test system: SK-MEL-28 melanoma
SK-MEL-5 melanoma = test system: SK-MEL-5 melanoma
SK-OV-3 ovarian = test system: SK-OV-3 ovarian
SN12C renal = test system: SN12C renal
SNB-19 CNS = test system: SNB-19 CNS
SNB-75 CNS = test system: SNB-75 CNS
SR leukemia = test system: SR leukemia
SW-620 colon = test system: SW-620 colon
T-47D breast = test system: T-47D breast
TK-10 renal = test system: TK-10 renal
U251 CNS = test system: U251 CNS
UACC-257 melanoma = test system: UACC-257 melanoma
UACC-62 melanoma = test system: UACC-62 melanoma
UO-31 renal = test system: UO-31 renal
HL-60(TB) leukemia = test system: HL-60(TB) leukemia

SMILES: CCCCCC(/C=C/C1CCC(=O)C1CC#C[Si](C)(C)C)OCc1ccccc1 (stereo unspecified)
- TGI (786-0 renal): 28.3 µM
- TGI (A498 renal): > 85.8 µM
- TGI (A549 NSCLC): 70.7 µM
- TGI (ACHN renal): 31.6 µM
- TGI (BT-549 breast): 33.8 µM
- TGI (CAKI-1 renal): 36.8 µM
- TGI (CCRF-CEM leukemia): 17.2 µM
- TGI (COLO 205 colon): 39.3 µM
- TGI (DU-145 prostate): > 87.5 µM
- TGI (EKVX NSCLC): 39.8 µM
- TGI (HCC-2998 colon): 48.1 µM
- TGI (HCT-116 colon): 34.9 µM
- TGI (HCT-15 colon): 30.1 µM
- TGI (HOP-62 NSCLC): 41.5 µM
- TGI (HOP-92 NSCLC): 17.2 µM
- TGI (HS 578T breast): 39.6 µM
- TGI (HT29 colon): 31.1 µM
- TGI (IGROV1 ovarian): 28.7 µM
- TGI (K-562 leukemia): 41.8 µM
- TGI (KM12 colon): 33 µM
- TGI (LOX IMVI melanoma): 35.8 µM
- TGI (M14 melanoma): 77.8 µM
- TGI (MALME-3M melanoma): 37.8 µM
- TGI (MCF7 breast): 44 µM
- TGI (MDA-MB-231 breast): 54.4 µM
- TGI (MDA-MB-435): 41.7 µM
- TGI (MDA-N): 42.6 µM
- TGI (MOLT-4 leukemia): > 68.9 µM
- TGI (NCI-H226 lung): > 94.7 µM
- TGI (NCI-H23 lung): 73.6 µM
- TGI (NCI-H460 lung): 30.7 µM
- TGI (NCI-H522 lung): 28.6 µM
- TGI (NCI/ADR-RES ovarian): 41.8 µM
- TGI (OVCAR-3 ovarian): 39.1 µM
- TGI (OVCAR-4 ovarian): > 71.8 µM
- TGI (OVCAR-5 ovarian): 39.5 µM
- TGI (OVCAR-8 ovarian): 31.1 µM
- TGI (PC-3 prostate): > 64.1 µM
- TGI (RPMI-8226 leukemia): 44.3 µM
- TGI (RXF 393 renal): 30.1 µM
- TGI (SF-268 CNS): 29.4 µM
- TGI (SF-295 CNS): 39.8 µM
- TGI (SF-539 CNS): 46.2 µM
- TGI (SK-MEL-2 melanoma): 35 µM
- TGI (SK-MEL-28 melanoma): > 58 µM
- TGI (SK-MEL-5 melanoma): 27.9 µM
- TGI (SK-OV-3 ovarian): > 100 µM
- TGI (SN12C renal): 39 µM
- TGI (SNB-19 CNS): > 84.8 µM
- TGI (SNB-75 CNS): 41.3 µM
- TGI (SR leukemia): > 57.4 µM
- TGI (SW-620 colon): > 57 µM
- TGI (T-47D breast): 85.1 µM
- TGI (TK-10 renal): 60.5 µM
- TGI (U251 CNS): 40.6 µM
- TGI (UACC-257 melanoma): 39.6 µM
- TGI (UACC-62 melanoma): 30.6 µM
- TGI (UO-31 renal): 34.3 µM

SMILES: CCO/C=N/NC(=O)CSc1nc2ccc(I)cc2c(=O)n1Cc1ccccc1
- TGI (786-0 renal): > 100 µM
- TGI (A498 renal): > 100 µM
- TGI (A549 NSCLC): > 100 µM
- TGI (ACHN renal): > 100 µM
- TGI (BT-549 breast): > 100 µM
- TGI (CAKI-1 renal): > 100 µM
- TGI (CCRF-CEM leukemia): > 100 µM
- TGI (COLO 205 colon): > 100 µM
- TGI (DU-145 prostate): > 100 µM
- TGI (EKVX NSCLC): > 100 µM
- TGI (HCC-2998 colon): > 100 µM
- TGI (HCT-116 colon): > 100 µM
- TGI (HCT-15 colon): > 100 µM
- TGI (HL-60(TB) leukemia): > 100 µM
- TGI (HOP-62 NSCLC): > 100 µM
- TGI (HOP-92 NSCLC): > 100 µM
- TGI (HS 578T breast): > 100 µM
- TGI (HT29 colon): > 100 µM
- TGI (IGROV1 ovarian): > 100 µM
- TGI (K-562 leukemia): > 100 µM
- TGI (KM12 colon): > 100 µM
- TGI (LOX IMVI melanoma): > 100 µM
- TGI (M14 melanoma): > 100 µM
- TGI (MCF7 breast): > 100 µM
- TGI (MDA-MB-231 breast): > 100 µM
- TGI (MDA-MB-435): > 100 µM
- TGI (MDA-N): > 100 µM
- TGI (MOLT-4 leukemia): > 100 µM
- TGI (NCI-H226 lung): > 100 µM
- TGI (NCI-H23 lung): > 100 µM
- TGI (NCI-H460 lung): > 100 µM
- TGI (NCI-H522 lung): 13.3 µM
- TGI (NCI/ADR-RES ovarian): > 100 µM
- TGI (OVCAR-3 ovarian): > 100 µM
- TGI (OVCAR-4 ovarian): > 100 µM
- TGI (OVCAR-5 ovarian): > 100 µM
- TGI (OVCAR-8 ovarian): > 100 µM
- TGI (PC-3 prostate): > 100 µM
- TGI (RPMI-8226 leukemia): > 100 µM
- TGI (RXF 393 renal): > 100 µM
- TGI (SF-268 CNS): > 100 µM
- TGI (SF-295 CNS): > 100 µM
- TGI (SF-539 CNS): > 100 µM
- TGI (SK-MEL-2 melanoma): 65.1 µM
- TGI (SK-MEL-28 melanoma): > 100 µM
- TGI (SK-MEL-5 melanoma): > 100 µM
- TGI (SK-OV-3 ovarian): > 100 µM
- TGI (SN12C renal): > 100 µM
- TGI (SNB-19 CNS): > 100 µM
- TGI (SNB-75 CNS): > 100 µM
- TGI (SR leukemia): > 100 µM
- TGI (SW-620 colon): > 100 µM
- TGI (T-47D breast): > 100 µM
- TGI (TK-10 renal): > 100 µM
- TGI (U251 CNS): > 100 µM
- TGI (UACC-257 melanoma): > 100 µM
- TGI (UACC-62 melanoma): > 100 µM
- TGI (UO-31 renal): > 100 µM
